# Laboratory results: US20180243421A1, “IMMUNOSTIMULATING AGENT” (AJINOMOTO CO., INC., priority 2015, published 2018)
# Key:
# [1] = system: anti-OVA-specific IgG1 subclass antibody; assay: Adjuvant activity: anti-OVA-specific IgG1 subclass antibody in serum after secondary immunization (Examples 1, 5, 7, 8; ELISA absorbance); format: in vivo, BALB/c mice
# Method in brief: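 Serum was taken two weeks after the secondary immunization and assayed by ELISA on plates coated with 5 μg/ml OVA. Detection used biotinylated anti-mouse IgG1, then anti-biotin-HRP and TMB. The reaction was stopped with 2N H2SO4 and read as absorbance at 450 nm.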
# [2] = system: anti-OVA-specific IgG1 subclass antibody; assay: Adjuvant activity: anti-OVA-specific IgG1 subclass antibody in serum after secondary immunization (Examples 12, 19, 20, 21); format: in vivo, BALB/c mice; settings: Example 21; s.c.; SZ62 0.256 μmol in 5% αCD saline, CpG 5 μg, MPL 5 μg, Addavax 1:1, Alum; two weeks from secondary immunization
# [3] = Dispersibility study: turbidity in cyclodextrin-added saline; format: physicochemical; settings: Example 11; SZ62 0.256 μmol in 1 mL; absorbance 650 nm, ratio to kaolinite
# Description: N-hexadecanoylagmatine (SZ62: compound wherein group corresponding to R^7 in formula (II) is C15 alkyl group) (0.256 μmol) was separated in a 2 mL tube containing zilconia beads, 1 mL of 5% αCD-added saline or 10% 2-hydroxypropyl-β-cyclodextrin (hereinafter to be also simply referred to as HP-β-CD)-added saline was added and the mixture was stirred. Thereafter, the absorbance (OD Value=650 nm) was measured by a microplate reader, and the turbidity was calculated as an index of dispersibility. The measurement method of the turbidity was as follows.
# Measurement Method of Turbidity
# SZ62 (0.256 μmol) was dispensed to a 2 mL tube containing zirconia beads, 5% αCD-added saline or 10% HP-β-CD-added saline (1 mL) was added, and the mixture was vigorously stirred three times under conditions of one time for 3.15 seconds at 6000 rpm. The mixture was dispensed by 200 μL to a 96 well plate, and the absorbance (OD Value=650 nm) was measured by a microplate reader. As a control, kaolinite (1 mg) was dissolved in distilled water (1 L), and the absorbance (OD Value=650 nm) was measured by a microplate reader. The absorbance thereof (OD Value=650 nm) was defined to be turbidity: 1, and the turbidity of each sample was calculated from the ratio with the measured value of kaolinite.
smiles,measurement,setting,value
"CCCCCCCCCCCCCCCC(=O)NC(=N)NCCCCN [SZ62, N-hexadecanoylagmatine]",anti-OVA-specific IgG1 subclass antibody production as compared to the OVA single administration group,"[1]; Example 1, dorsal-subcutaneous, OVA 10 μg, SZ62 0.256 μmol in 5% αCD saline, Alum 2.56 μmol, serum two weeks from secondary immunization",significantly increased
same,adjuvant activity (IgG1) compared with Alum,"[1]; Example 1, same test as E1",equivalent to that of Alum
same,adjuvant activity (IgG1) compared with Alum,[1]; Example 5,equivalent to or not less than that of Alum
same,anti-OVA-specific IgG1 subclass antibody production as compared to the OVA single administration group,"[1]; Example 5, same manner as Example 1",significantly increased
same,adjuvant activity (IgG1) compared with Alum,[1]; Example 8,equivalent to or not less than that of Alum
same,anti-OVA-specific IgG1 subclass antibody production as compared to the OVA single administration group,"[1]; Example 8, same manner as Example 7",significantly increased
same,anti-OVA-specific IgG1 subclass antibody production as compared to the OVA single administration group,[2],tended to increase
same,"turbidity after addition of 10% HP-β-CD-added saline and stirring, versus turbidity after addition of 5% αCD-added saline",[3],significantly lower
